The assay concerns the target wild-type un-phosphorylated FGFR3 protein (Homo sapiens, UniProt P22607). As to the kind of experiment: FGFR Enzymatic Assay (FRET peptide phosphorylation).

This is an account of results in US11939331B2, “Tricyclic heterocycles as FGFR inhibitors” (Incyte Corporation, priority 2021, dated 2024).

The structures appear in SMILES notation.

Sequence of wild-type un-phosphorylated FGFR3 protein (P22607 23-806): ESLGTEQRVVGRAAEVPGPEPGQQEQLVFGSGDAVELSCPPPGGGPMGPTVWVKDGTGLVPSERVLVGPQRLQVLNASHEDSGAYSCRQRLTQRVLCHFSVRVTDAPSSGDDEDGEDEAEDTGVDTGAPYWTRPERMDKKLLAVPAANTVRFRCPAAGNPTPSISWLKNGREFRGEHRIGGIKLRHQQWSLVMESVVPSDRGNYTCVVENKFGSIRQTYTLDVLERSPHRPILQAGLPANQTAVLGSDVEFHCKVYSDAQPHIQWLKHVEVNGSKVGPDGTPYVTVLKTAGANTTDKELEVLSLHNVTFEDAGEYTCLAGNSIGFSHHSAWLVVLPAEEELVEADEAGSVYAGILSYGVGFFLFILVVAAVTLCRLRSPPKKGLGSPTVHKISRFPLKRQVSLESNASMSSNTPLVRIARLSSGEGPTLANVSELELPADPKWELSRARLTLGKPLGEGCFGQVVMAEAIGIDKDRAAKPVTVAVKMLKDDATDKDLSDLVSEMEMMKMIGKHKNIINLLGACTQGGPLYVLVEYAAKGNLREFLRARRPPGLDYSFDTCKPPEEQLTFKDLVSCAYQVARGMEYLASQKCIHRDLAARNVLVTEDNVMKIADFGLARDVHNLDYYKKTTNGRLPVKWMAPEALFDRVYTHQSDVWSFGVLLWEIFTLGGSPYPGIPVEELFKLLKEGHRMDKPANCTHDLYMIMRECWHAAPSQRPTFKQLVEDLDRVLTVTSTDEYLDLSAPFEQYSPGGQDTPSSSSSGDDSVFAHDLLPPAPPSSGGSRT
Protocol: The inhibitor potency of the exemplified compounds was determined in an enzyme discontinuous assay that measures peptide phosphorylation using FRET measurements to detect product formation. Inhibitors were serially diluted in DMSO and a volume of 0.2 μL was transferred to the wells of a 384-well plate. A 5 μL/well volume of enzyme isoforms of FGFR (-1, -2, -3 wild-type and mutant isoforms, -4) including phosphorylated and un-phosphorylated proteins diluted in assay buffer (50 mM HEPES, 10 mM MgCl2, 1 mM EGTA, 0.01% Tween-20, 5 mM DTT, pH 7.5) was added to the plate and pre-incubated with inhibitor for 5 to 15 minutes at ambient temperature. Appropriate controls (enzyme blank and enzyme with no inhibitor) were included on the plate. The reaction was initiated by the addition of a 5 μL/well volume containing both biotinylated [sequence] peptide substrate (SEQ ID NO: 1) and ATP in assay buffer. The 10 μL/well reaction concentration of the peptide substrate was 500 nM whereas the ATP concentration was maintained near or below the ATP Km. The ATP Km values were pre-determined in a separate series of experiments. The reaction plate was incubated at 25° C. for 1 hr and the reactions were ended with the addition of 5 μL/well of quench solution (50 mM Tris, 150 mM NaCl, 0.5 mg/mL BSA, pH 7.8; 45 mM EDTA, 600 nM staurosporin, with Perkin Elmer Lance Reagents at 3.75 nM Eu-antibody PY20 and 180 nM APC-Streptavidin). The plate was allowed to equilibrate for ˜10 minutes at ambient temperature before scanning on a PheraStar plate reader (BMG Labtech) instrument.
Either GraphPad prism or XLfit was used to analyze the data. The IC50 values were derived by fitting the data to a four parameter logistic equation producing a sigmoidal dose-response curve with a variable Hill coefficient. Prism equation: Y=Bottom+(Top−Bottom)/(1+10^((Log IC50−X)*Hill slope)); XLfit equation: Y=(A+((B−A)/(1+((X/C)^D)))) where X is the logarithm of inhibitor concentration and Y is the response.

Turning to `NC(=O)c1c(-c2c(Cl)cccc2Cl)nc2c3cc(-c4cnn(CCO)c4)cnc3ccn12` [Example 1, 2-(2,6-Dichlorophenyl)-9-(1-(2-hydroxyethyl)-1H-pyrazol-4-yl)imidazo[2,1-f][1,6]naphthyridine-3-carboxamide], the IC50 is less than 100 pM. Consider `CC(C)(O)Cn1cc(-c2cnc3ccn4c(C(N)=O)c(-c5c(Cl)cccc5Cl)nc4c3c2)cn1` [Example 2, 2-(2,6-Dichlorophenyl)-9-(1-(2-hydroxy-2-methylpropyl)-1H-pyrazol-4-yl)imidazo[2,1-f][1,6]naphthyridine-3-carboxamide], for which the IC50 was less than 100 pM. In the case of `CC(C)(C(N)=O)n1cc(-c2cnc3ccn4c(C(N)=O)c(-c5c(Cl)cccc5Cl)nc4c3c2)cn1` [Example 3, 9-(1-(1-Amino-2-methyl-1-oxopropan-2-yl)-1H-pyrazol-4-yl)-2-(2,6-dichlorophenyl)imidazo[2,1-f][1,6]naphthyridine-3-carboxamide] it was 100 to 1000 pM; in that of `NC(=O)c1c(-c2c(Cl)cccc2Cl)nc2c3cc(-c4ccc(C(=O)N5CCOCC5)cc4)cnc3ccn12` [Example 4, 2-(2,6-Dichlorophenyl)-9-(4-(morpholine-4-carbonyl)phenyl)imidazo[2,1-f][1,6]naphthyridine-3-carboxamide], less than 100 pM; in that of `NC(=O)c1c(-c2c(Cl)cccc2Cl)nc2c3cc(-c4cn[nH]c4)cnc3ccn12` [Example 5, 2-(2,6-Dichlorophenyl)-9-(1H-pyrazol-4-yl)imidazo[2,1-f][1,6]naphthyridine-3-carboxamide], less than 100 pM. Turning to `CC(CC#N)n1cc(-c2cnc3ccn4c(C(N)=O)c(-c5c(Cl)cccc5Cl)nc4c3c2)cn1` (stereo not shown) [Example 6, 9-(1-(1-Cyanopropan-2-yl)-1H-pyrazol-4-yl)-2-(2,6-dichlorophenyl)imidazo[2,1-f][1,6]naphthyridine-3-carboxamide], the IC50 is less than 100 pM. In turn, `CCC(O)Cn1cc(-c2cnc3ccn4c(C(N)=O)c(-c5c(Cl)cccc5Cl)nc4c3c2)cn1` (stereo not shown) [Example 7, 2-(2,6-Dichlorophenyl)-9-(1-(2-hydroxybutyl)-1H-pyrazol-4-yl)imidazo[2,1-f][1,6]naphthyridine-3-carboxamide] came in with an IC50 of 100 to 1000 pM. For the molecule `NC(=O)c1c(-c2c(Cl)cccc2Cl)nc2c3cc(-c4cnn(CC5(F)CCOCC5)c4)cnc3ccn12` [Example 8, 2-(2,6-Dichlorophenyl)-9-(1-((4-fluorotetrahydro-2H-pyran-4-yl)methyl)-1H-pyrazol-4-yl)imidazo[2,1-f][1,6]naphthyridine-3-carboxamide], the IC50 is less than 100 pM.

In turn, `N#Cc1cncc(Cn2cc(-c3cnc4ccn5c(C(N)=O)c(-c6c(Cl)cccc6Cl)nc5c4c3)cn2)c1` [Example 9, 9-(1-((5-Cyanopyridin-3-yl)methyl)-1H-pyrazol-4-yl)-2-(2,6-dichlorophenyl)imidazo[2,1-f][1,6]naphthyridine-3-carboxamide] gave an IC50 of less than 100 pM. The value for `N#Cc1cc(Cn2cc(-c3cnc4ccn5c(C(N)=O)c(-c6c(Cl)cccc6Cl)nc5c4c3)cn2)ccn1` [Example 10, 9-(1-((2-Cyanopyridin-4-yl)methyl)-1H-pyrazol-4-yl)-2-(2,6-dichlorophenyl)imidazo[2,1-f][1,6]naphthyridine-3-carboxamide] was less than 100 pM. `NC(=O)c1c(-c2c(Cl)cccc2Cl)nc2c3cc(-c4cnn(Cc5ccncn5)c4)cnc3ccn12` [Example 11, 2-(2,6-Dichlorophenyl)-9-(1-(pyrimidin-4-ylmethyl)-1H-pyrazol-4-yl)imidazo[2,1-f][1,6]naphthyridine-3-carboxamide] displayed an IC50 of less than 100 pM. In turn, `CC(c1ccnc(C#N)c1)n1cc(-c2cnc3ccn4c(C(N)=O)c(-c5c(Cl)cccc5Cl)nc4c3c2)cn1` (stereo not shown) [Example 12, 9-(1-(1-(2-Cyanopyridin-4-yl)ethyl)-1H-pyrazol-4-yl)-2-(2,6-dichlorophenyl)imidazo[2,1-f][1,6]naphthyridine-3-carboxamide] yielded an IC50 of 100 to 1000 pM. On to `NC(=O)c1c(-c2c(Cl)cccc2Cl)nc2c3cc(-c4ccc(C5CCS(=O)(=O)CC5)cc4)cnc3ccn12` [Example 13, 2-(2,6-Dichlorophenyl)-9-(4-(1,1-dioxidotetrahydro-2H-thiopyran-4-yl)phenyl)imidazo[2,1-f][1,6]naphthyridine-3-carboxamide], for which the IC50 lay in the range of 100 to 1000 pM. The molecule `NC(=O)c1c(-c2c(Cl)cccc2Cl)nc2c3cc(-c4ccc(N5CCS(=O)(=O)CC5)cc4)cnc3ccn12` [Example 14, 2-(2,6-Dichlorophenyl)-9-(4-(1,1-dioxidothiomorpholino)phenyl)imidazo[2,1-f][1,6]naphthyridine-3-carboxamide] yielded an IC50 of less than 100 pM.

`NC(=O)c1c(-c2c(Cl)cccc2Cl)nc2c3cc(-c4cnn(Cc5ncccn5)c4)cnc3ccn12` [Example 15, 2-(2,6-Dichlorophenyl)-9-(1-(pyrimidin-2-ylmethyl)-1H-pyrazol-4-yl)imidazo[2,1-f][1,6]naphthyridine-3-carboxamide] had an IC50 of less than 100 pM. On to `N#Cc1cccc(Cn2cc(-c3cnc4ccn5c(C(N)=O)c(-c6c(Cl)cccc6Cl)nc5c4c3)cn2)n1` [Example 16, 9-(1-((6-Cyanopyridin-2-yl)methyl)-1H-pyrazol-4-yl)-2-(2,6-dichlorophenyl)imidazo[2,1-f][1,6]naphthyridine-3-carboxamide], for which the IC50 was less than 100 pM. In turn, `CC(=O)N1CCN(c2ccc(-c3cnc4ccn5c(C(N)=O)c(-c6c(Cl)cccc6Cl)nc5c4c3)cc2)CC1` [Example 17, 9-(4-(4-Acetylpiperazin-1-yl)phenyl)-2-(2,6-dichlorophenyl)imidazo[2,1-f][1,6]naphthyridine-3-carboxamide] came in with an IC50 of less than 100 pM. As for `NC(=O)c1c(-c2c(Cl)cccc2Cl)nc2c3cc(-c4ccc(N5CCN(C(=O)CO)CC5)cc4)cnc3ccn12` [Example 18, 2-(2,6-Dichlorophenyl)-9-(4-(4-(2-hydroxyacetyl)piperazin-1-yl)phenyl)imidazo[2,1-f][1,6]naphthyridine-3-carboxamide], the IC50 is less than 100 pM. For the molecule `CC(=O)N1CCN(Cc2ccc(-c3cnc4ccn5c(C(N)=O)c(-c6c(Cl)cccc6Cl)nc5c4c3)cc2)CC1` [Example 19, 9-(4-((4-Acetylpiperazin-1-yl)methyl)phenyl)-2-(2,6-dichlorophenyl)imidazo[2,1-f][1,6]naphthyridine-3-carboxamide], the 50% inhibitory concentration (IC50) is less than 100 pM. Molecule `NC(=O)c1c(-c2c(Cl)cccc2Cl)nc2c3cc(-c4ccc(CN5CCN(C(=O)CO)CC5)cc4)cnc3ccn12` [Example 20, 2-(2,6-Dichlorophenyl)-9-(4-((4-(2-hydroxyacetyl)piperazin-1-yl)methyl)phenyl)imidazo[2,1-f][1,6]naphthyridine-3-carboxamide] had an IC50 of 100 to 1000 pM. For the molecule `CN1CCN(c2ccc(-c3cnc4ccn5c(C(N)=O)c(-c6c(Cl)cccc6Cl)nc5c4c3)cc2)CC1` [Example 21, 2-(2,6-Dichlorophenyl)-9-(4-(4-methylpiperazin-1-yl)phenyl)imidazo[2,1-f][1,6]naphthyridine-3-carboxamide], the IC50 was less than 100 pM.

The molecule `NC(=O)c1c(-c2c(Cl)cccc2Cl)nc2c3cc(-c4ccc(C(=O)N5C[C@@H]6C[C@H]5CO6)cc4)cnc3ccn12` [Example 22, 9-(4-((1S,4S)-2-Oxa-5-azabicyclo[2.2.1]heptane-5-carbonyl)phenyl)-2-(2,6-dichlorophenyl)imidazo[2,1-f][1,6]naphthyridine-3-carboxamide] yielded an IC50 of less than 100 pM. `N#CCn1cc(-c2cnc3ccn4c(C(N)=O)c(-c5c(Cl)cccc5Cl)nc4c3c2)cn1` [Example 23, 9-(1-(Cyanomethyl)-1H-pyrazol-4-yl)-2-(2,6-dichlorophenyl)imidazo[2,1-f][1,6]naphthyridine-3-carboxamide] had an IC50 of less than 100 pM. Take `NC(=O)c1c(-c2c(Cl)cccc2Cl)nc2c3cc(-c4cnn(C5CCOCC5)c4)cnc3ccn12` [Example 24, 2-(2,6-Dichlorophenyl)-9-(1-(tetrahydro-2H-pyran-4-yl)-1H-pyrazol-4-yl)imidazo[2,1-f][1,6]naphthyridine-3-carboxamide]: the IC50 is 100 to 1000 pM.

`NC(=O)c1c(-c2c(Cl)cccc2Cl)nc2c3cc(-c4cnn(Cc5ccccc5)c4)cnc3ccn12` [Example 25, 9-(1-Benzyl-1H-pyrazol-4-yl)-2-(2,6-dichlorophenyl)imidazo[2,1-f][1,6]naphthyridine-3-carboxamide] showed an IC50 of 100 to 1000 pM. The molecule `CS(=O)(=O)CCn1cc(-c2cnc3ccn4c(C(N)=O)c(-c5c(Cl)cccc5Cl)nc4c3c2)cn1` [Example 26, 2-(2,6-Dichlorophenyl)-9-(1-(2-(methylsulfonyl)ethyl)-1H-pyrazol-4-yl)imidazo[2,1-f][1,6]naphthyridine-3-carboxamide] returned an IC50 of less than 100 pM. Molecule `CC(C#N)n1cc(-c2cnc3ccn4c(C(N)=O)c(-c5c(Cl)cccc5Cl)nc4c3c2)cn1` (stereo not shown) [Example 27, 9-(1-(1-Cyanoethyl)-1H-pyrazol-4-yl)-2-(2,6-dichlorophenyl)imidazo[2,1-f][1,6]naphthyridine-3-carboxamide] gave a half-inhibitory concentration (IC50) of less than 100 pM. `NC(=O)c1c(-c2c(Cl)cccc2Cl)nc2c3cc(-c4cnn(CC(F)F)c4)cnc3ccn12` [Example 28, 2-(2,6-Dichlorophenyl)-9-(1-(2,2-difluoroethyl)-1H-pyrazol-4-yl)imidazo[2,1-f][1,6]naphthyridine-3-carboxamide] returned an IC50 of less than 100 pM. Consider `CN1CCC(n2cc(-c3cnc4ccn5c(C(N)=O)c(-c6c(Cl)cccc6Cl)nc5c4c3)cn2)CC1` [Example 29, 2-(2,6-Dichlorophenyl)-9-(1-(1-methylpiperidin-4-yl)-1H-pyrazol-4-yl)imidazo[2,1-f][1,6]naphthyridine-3-carboxamide], for which the IC50 was less than 100 pM. With `CC(C)(CO)n1cc(-c2cnc3ccn4c(C(N)=O)c(-c5c(Cl)cccc5Cl)nc4c3c2)cn1` [Example 30, 2-(2,6-Dichlorophenyl)-9-(1-(1-hydroxy-2-methylpropan-2-yl)-1H-pyrazol-4-yl)imidazo[2,1-f][1,6]naphthyridine-3-carboxamide], the IC50 was less than 100 pM.

Consider `CC(C)(C#N)n1cc(-c2cnc3ccn4c(C(N)=O)c(-c5c(Cl)cccc5Cl)nc4c3c2)cn1` [Example 31, 9-(1-(2-Cyanopropan-2-yl)-1H-pyrazol-4-yl)-2-(2,6-dichlorophenyl)imidazo[2,1-f][1,6]naphthyridine-3-carboxamide], for which the IC50 was less than 100 pM.
